Experiment [1] has as its target T1, Na^+, K^+ -ATPase receptor (Canis lupus familiaris, UniProt P50997).
T1 construct: Na^+, K^+ -ATPase receptor purified according to Jorghensen; from tissue
Kind of experiment: displacement of the specific 3H-oubain binding from the Na+, K+-ATPase receptor. The settings on record: 3H-oubain displacement from purified Na+,K+-ATPase; read-out: Binding ^3 H-oubain displacement -log IC50 (converted). The source says:
(§1) To test the affinity for the receptor site of the Na^+, K^+ -ATPase and the agonist or inhibitory activity on the enzyme, the following tests were used:
a) displacement of the specific ^3 H-oubain binding from the Na^+, K^+ -ATPase receptor purified according to Jorghensen (Jorghensen P., BBA, 1974, 356, 36) and Erdmann (Erdmann E. et al., Arzneim. Forsh, 1984, 34,1314);

In experiment [2] the target is T2, purified Na^+, K^+ -ATPase (Canis lupus familiaris, UniProt P50997).
T2 construct: Na^+, K^+ -ATPase receptor purified according to Jorghensen; from tissue
Description: inhibition of the activity of the purified Na+, K+-ATPase (% of hydrolysis of 32P-ATP). The format is biochemical.
Excerpt: as §1
b) inhibition of the activity of the purified Na^+, K^+ -ATPase measured as % of hydrolysis of ^32 P-ATP in the presence and in the absence of the tested compound (Doucet A. et al., Am. J. Physiol., 1986, 251, F851).

The test system of experiment [3] is Na^+, K^+ -ATPase. The settings on record: reported in DE 4,227,626; cited from earlier work.
In experiment [4] the test system is Na^+, K^+ -ATPase. The settings on record: reported in DE 4,227,626; cited from earlier work. This is another data set of the same source.
The mark [5] stands for this setting: purified Na+,K+-ATPase, 32P-ATP hydrolysis, read-out: Inhibitory activity -log IC50 (converted).

Like-named read-outs stand apart in the source and are kept apart here.

For the compound `CN(C)CCO/N=C/C=C/[C@H]1CC[C@H]2[C@@H]3CC=C4C[C@@H](O)CC[C@]4(C)[C@H]3CC[C@]12C` [I-h, (E,E)-17β-[3-(2-dimethylaminoethoxyimino)-1-propenyl]-androst-5-en-3β-ol], the IC50 was 1 µM in experiment [1] and 5.01 µM in experiment [2].

With `CN(C)CCO/N=C/[C@H]1CC[C@H]2[C@@H]3CC[C@@H]4C[C@@H](OCCN5CCCC5)CC[C@]4(C)[C@H]3CC[C@]12C` [I-b, (E)-17β-[2-dimethylaminoethoxyiminomethyl]-3β-[2-(1-pirrolidinyl)ethoxy]-5β-androstane], the IC50 in experiment [1] is 0.501 µM; in experiment [2], 7.94 µM.

Consider `C[C@]12CC[C@H]3[C@@H](CC=C4C[C@@H](O)CC[C@@]43C)[C@@H]1CC[C@@H]2C=NOCCCCN` (mixture of isomers) [I-n, (EZ)-17β-(4-aminobutoxyiminomethyl)-androst-5-en-3β-ol], for which the half-inhibitory concentration (IC50) is 2 µM in experiment [1] and 20 µM in experiment [2] (setting [5]).

On to `CN(C)CCCON=C[C@H]1CC[C@H]2[C@@H]3CC=C4C[C@@H](O)CC[C@]4(C)[C@H]3CC[C@]12C` (mixture of isomers) [I-l, (EZ)-17β-(3-dimethylaminopropoxyiminomethyl)-androst-5-en-3β-ol], for which the concentration for half-maximal inhibition (IC50) was 1.26 µM in experiment [1] and 25.1 µM in experiment [2].

For the compound `CN(C)CCO/N=C/[C@H]1CC[C@H]2[C@@H]3CC=C4C[C@@H](O)CC[C@]4(C)[C@H]3CC[C@]12C` [I-f, (E)-17β-[2-dimethylaminoethoxyiminomethyl]-androst-5-en-3β-ol], the IC50 in experiment [1] is 5.01 µM; in experiment [2], 79.4 µM.

Regarding `CC12CCC(O)CC1CCC1C2CCC2(C)C(C=NO)CCC12O` (stereo not drawn) [17-hydroxyiminomethyl-5β-androstan-3β-14β-diol], the “affinity for Na^+, K^+ -ATPase” value in experiment [3] is listed as “good affinity”. The “inhibition of the enzyme Na^+, K^+ -ATPase” value in experiment [4] was “inhibit the enzyme”.

Consider `C[C@]12CC[C@H]3[C@@H](CC=C4C[C@@H](O)CC[C@@]43C)[C@@H]1CC[C@@H]2/C=N/OCCN` [I-e, (E)-17β-(2-aminoethoxyiminomethyl)-androst-5-en-3β-ol], for which the IC50 in experiment [1] is 0.158 µM; in experiment [2] (setting [5]), 2 µM.

`C[C@]12CC[C@H]3[C@@H](CC=C4C[C@@H](O)CC[C@@]43C)[C@@H]1CC[C@@H]2/C=C/C=N/OCCN` [I-g, (E,E)-17β-[3-(2-aminoethoxyimino)-1-propenyl]-androst-5-en-3β-ol]: the IC50 was 0.251 µM in experiment [1] and 1.58 µM in experiment [2] (setting [5]).

Turning to `CN(C)CCCO/N=C/C=C/[C@H]1CC[C@H]2[C@@H]3CC=C4C[C@@H](O)CC[C@]4(C)[C@H]3CC[C@]12C` [I-i, (E,E)-17β-[3-(3-dimethylaminopropoxyimino)-1-propenyl]-androst-5-en-3β-ol], the 50% inhibitory concentration (IC50) in experiment [1] was 0.631 µM; in experiment [2] it was 2.51 µM.

Consider `C[C@]12CC[C@H]3[C@@H](CC=C4C[C@@H](O)CC[C@@]43C)[C@@H]1CC[C@@H]2/C=N/OCCCN` [I-m, (E)-17β-(3-aminopropoxyiminomethyl)-androst-5-en-3β-ol], for which the IC50 in experiment [1] was 0.398 µM; in experiment [2] it was 3.98 µM.

As a reminder, the IC50 is the concentration at which inhibition is half-maximal.

(Values after US5792759A, “17-hydroxyiminoalkyl and 17-hydroxyiminomethylalkenyl cyclopentaneperhydrophenanthrene derivatives active on the cardiovascular system, a process for their preparation and pharmaceutical compositions containing the same” (Sigma-Tau Industrie Farmaceutiche Riunite S.p.A., priority 1995, dated 1998).)
